Results reported in patent US10034939B2, “Synergistic combination of immunologic inhibitors for the treatment of cancer” (The University of Chicago, priority 2012, dated 2018).

What was measured:
[1] = test system: CD3^+ cells in the peripheral blood; settings: previous studies; cited from earlier work
[2] = test system: CD3^+ cells in the peripheral blood; assay: Depletion of circulating T cells by FTY720 in tumor-bearing mice; assay type: in vivo; settings: 25 μg FTY-720 oral gavage on day 4, relative to vehicle-treated mice
Experimental: Prior to the initiation of the therapy regimens (2.5 h pre-treatment), fingolimod (FTY-720, Enzo Life Sciences) was given to mice to inhibit lymphocyte migration out of lymphoid organs. FTY-720 stock solution (10 mg/ml in DMSO) was diluted to a 125 μg/ml concentration in PBS directly before administration. Mice received a dose of 25 μg FTY-720 or PBS containing DMSO as control via oral gavage. Therapy was initiated the same day (2.5 h delayed) and mice were analyzed on day 7 to perform the ex vivo functional assay as described above.
To determine whether the presence of CD8^+ T cells showing high levels of IL-2 production and proliferation within the tumor microenvironment following effective immunotherapy doublets was a result of new T cell migration into the tumor site or reactivation of T cells already present, FTY720 treatment was utilized to block the sphingosine 1-phosphate receptor-1 and thereby prohibit T cells from exiting lymphoid organs. Previous studies have shown that the effect can be detected as soon as 2 h after initial administration and is stable for up to 4 days. FTY720 was administered or control vehicle to tumor-bearing mice on day 4, 2.5 h prior to the initiation of immunotherapies. […] Overall, a 90% reduction in circulating CD3^+ T cells in FTY720-treated mice was detected (FIG. 13A). […]

In the case of CCCCCCCCc1ccc(CCC(N)(CO)CO)cc1 [FTY720, fingolimod], the “time after initial administration at which the effect can be detected” value [1] is listed as 2 h, the “time for which the effect is stable” value [1] is listed as “up to 4 days” and the “reduction in circulating CD3^+ T cells” value [2] is listed as 90%.
